Experimental data from patent US20240197814A1, “MATERIALS AND METHODS FOR THE PREVENTION AND TREATMENT OF VIRAL DISEASES” (priority 2021, published 2024).
Where two headings read alike, the source gives them in different places.

What was measured:
Format in all cases: cell-based
HIV-1 IIIB = experiment: In vitro HIV-1 prevention model, TZM-bl-FcRI cells, β-galactosidase; details: TZM-bl-FcRI cells, 0.1, 0.25 and 1 μM peptide, 48 h
Description: Sixty-seven (67) compounds from a library of peptides included in TABLE 1 were evaluated for inhibition of HIV-1 IIIB in TZM-bl-FcRI cells. The compounds were tested at three (3) concentrations with six (6) replicates each for efficacy and toxicity for 48 hours in this model. Virus was diluted 1:128, based on a previous titration. The test article was dissolved in DMSO to generate a stock solution, and dosing solutions were prepared by dilution of the stock solution using the appropriate volume of PBS. These dosing solutions were mixed with predetermined volumes of the virus suspension, based on the titration data, and were incubated for 30 min at 37° C./5% CO2.
Following incubation, the virus/compound mixture was added to pre-plated TZM-bl-FcRI cells and the necessary volume of assay media (based on the titration). The culture was incubated for six hours under the above conditions and then washed to remove residual virus and compound. The cultures were incubated for an additional 48 hours at 37° C./5% CO2 before measuring β-galactosidase in the wells using a chemiluminescent endpoint.
The study was carried out using a 96-well format. The first row of 12 wells was used as a negative control (cells with no virus or test compound added). […] Peptide 346-001 served as a positive control on each plate, such that three other test compounds could be evaluated per plate. […]

[1] = test system: SARS-CoV-2 (2019-nCoV/USA-WA1/2020 strain); details: 60% confluent VERO E6, 48 h
[2] = test system: SARS-CoV-2 (2019-nCoV/USA-WA1/2020 strain); details: 80% confluent VERO E6, 48 h
[3] = test system: SARS-CoV-2 (2019-nCoV/USA-WA1/2020 strain); details: VERO E6, 48 h

## Ac-SWLRDIWDWICEVLSDFKC(succinimido-propionylaminoethyl-mPEG2K)-NH2 (Ac-SWLRDIWDWICEVLSDFKC(succinimido‑propionylaminoethyl‑mPEG2K)-NH2) [Peptide 346-064]
HIV-1 IIIB
  potency against HIV-1 compared with peptide 346-001: increase in potency

## GSWLRDIWDWICEVLSDFK [Peptide 346-003]
[1]
  dose response curve shape: unexpected and unusual dose response curve shape

## SIWRDWVDLICEFLSDWK [Peptide 346-007]
[2]
  dose-response relationship: steep dose response relationship
  potency relative to the other peptides tested: ca. double

## SWLRDIWDWICEVLSDFK [Peptide 346-001, virucidal amphipathic α-helical peptide derived from the hepatitis C virus (HCV) NS5A membrane anchor domain]
[3]; 50 μM dosing concentration
  reduction on viral copy numbers: > 5 orders of magnitude
[3]; 125 μM dosing concentration
  reduction on viral copy numbers: > 7 orders of magnitude
[3]
  potency against SARS-CoV-2 infection: high potency
